For one experiment, the species on record is Homo sapiens. In words: Inhibition of recombinant full-length human ATR/ATRIP M211T mutant assessed as residual activity at 10 uM using GST-cMyc-p53 as substrate measured after 40 mins by fluorescence assay relative to control.
Experiment [1] has as its target Mitogen-activated protein kinase kinase kinase kinase 5 (Homo sapiens) (UniProt Q9Y4K4). The experiment is described as follows: Inhibition of recombinant human MAP4K5 assessed as residual activity at 10 uM using myelin basic protein as substrate incubated for 40 mins in presence of [gamma-33ATP by scintillation counting based radiometry assay relative to control.

Experiment [2] deals with Serine/threonine-protein kinase WNK3 (Homo sapiens) (UniProt Q9BYP7). In words: Inhibition of recombinant human WNK3 (1 to 434 residues) assessed as residual activity at 10 uM using myelin basic protein as substrate incubated for 40 mins in presence of [gamma33P]ATP by scintillation counting based radiometry assay relative to control.
Experiment [3] has as its target NUAK family SNF1-like kinase 2 (Homo sapiens) (UniProt Q9H093). In words: Inhibition of recombinant human full length NUAK2 assessed as residual activity at 10 uM using KKKVSRSGLYRSPSMPENLNRPR as substrate measured after 40 mins in presence of [gamma33P]ATP by scintillation counting based radiometry assay relative to control.
In experiment [4] the target is Casein kinase II subunit alpha' (Homo sapiens) (UniProt P19784). The experiment is described as follows: Inhibition of recombinant full length human CK2alpha2 assessed as residual activity at 10 uM using RRRDDDSDDD as substrate incubated 40 mins in presence of [gamma-33ATP] by scintillation counting based radiometry assay relative to control.
Experiment [5] concerns Tyrosine-protein kinase receptor UFO (Homo sapiens), P30530 [Q764R]. The experiment is described as follows: Inhibition of recombinant human Axl Q764R mutant (473 to end residues) assessed as residual activity at 10 uM using KKSRGDYMTMQIG as substrate incubated for 40 mins in presence of [gamma-33ATP] by scintillation counting based radiometry assay relative to control.
Experiment [6] relates to Serine/threonine-protein kinase Chk2 (Homo sapiens), O96017 [I157T]. The experiment is described as follows: Inhibition of recombinant human CHK2 I157T mutant (5 to end residues) assessed as residual activity at 10 uM using KKKVSRSGLYRSPSMPENLNRPR as substrate incubated for 40 mins in presence of [gamma-33ATP] by scintillation counting based radiometry assay relative to control.

Experiment [7] deals with Tyrosine-protein kinase Fgr (Homo sapiens) (UniProt P09769). In words: Inhibition of recombinant human FGR (2 to end residues) assessed as residual activity at 10 uM using poly(Glu, Tyr) 4:1 as substrate at 40 mins in presence of [gamma-33ATP] by scintillation counting based radiometry assay relative to control.
Experiment [8] addresses Mitogen-activated protein kinase kinase kinase 10 (Homo sapiens) (UniProt Q02779). The experiment is described as follows: Inhibition of recombinant human MLK2 (1 to 499 residues) assessed as residual activity at 10 uM using myelin basic protein as substrate incubated for 40 mins in presence of [gamma-33ATP by scintillation counting based radiometry assay relative to control.

For experiment [9], the target named is Serine/threonine-protein kinase Sgk3 (Homo sapiens) (UniProt Q96BR1). The experiment is described as follows: Inhibition of recombinant human SGK3 (119 to end residues) assessed as residual activity at 10 uM using GRPRTSSFAEGKK as substrate incubated for 40 mins in presence of [gamma33P]ATP by scintillation counting based radiometry assay relative to control.

Experiment [10] deals with SNF-related serine/threonine-protein kinase (Homo sapiens), Q9NRH2 [UNDEFINED MUTATION]. In words: Inhibition of human SNRK E97G/P116A mutant (65 to 409 residues) assessed as residual activity at 10 uM using KKLRRTLSFAEPG as substrate incubated for 40 mins in presence of [gamma33P]ATP by scintillation counting based radiometry assay relative to control.
Experiment [11] has as its target Phosphatidylinositol 5-phosphate 4-kinase type-2 alpha (Homo sapiens) (UniProt P48426). The experiment is described as follows: Inhibition of recombinant full-length human PIP4K2alpha assessed as residual activity at 10 uM using phosphatidylinositol 5-phosphate as substrate by HTRF assay relative to control. For orientation: TR-FRET usually uses a lanthanide donor and a delayed reading to cut background.

Experiment [12] concerns the target Dual specificity mitogen-activated protein kinase kinase 2 (Homo sapiens) (UniProt P36507). In words: Inhibition of recombinant human MEK2 assessed as residual activity at 10 uM using MBP as substrate incubated for 40 mins in presence of [gamma-33ATP by scintillation counting based radiometry assay relative to control.
Experiment [13] has as its system Hepatocyte growth factor receptor (Homo sapiens), P08581 [M1250T]. In words: Inhibition of recombinant human MET A1209G/V1290L/M1268T mutant (974 to end residues) assessed as residual activity at 10 uM using KKKGQEEEYVFIE as substrate incubated for 40 mins in presence of [gamma-33ATP by scintillation counting based radiometry assay relative to control.
Experiment [14] addresses Serine/threonine-protein kinase 32A (Homo sapiens) (UniProt Q8WU08). The experiment is described as follows: Inhibition of recombinant human full length STK32A assessed as residual activity at 10 uM using casein as substrate incubated for 40 mins in presence of [gamma33P]ATP by scintillation counting based radiometry assay relative to control.
In experiment [15] the target is PAS domain-containing serine/threonine-protein kinase (Homo sapiens) (UniProt Q96RG2). The experiment is described as follows: Inhibition of recombinant human PASK (995 to end residues) assessed as residual activity at 10 uM using KKLNRTLSFAEPG as substrate measured after 40 mins in presence of [gamma33P]ATP by scintillation counting based radiometry assay relative to control.

In experiment [16] the target is Eukaryotic translation initiation factor 2-alpha kinase 3 (Homo sapiens) (UniProt Q9NZJ5). The experiment is described as follows: Inhibition of human PEK (536 to end residues) assessed as residual activity at 10 uM using RSRSRSRSRSRSRSR as substrate measured after 40 mins in presence of [gamma33P]ATP by scintillation counting based radiometry assay relative to control.

Experiment [17] concerns Serine/threonine-protein kinase N1 (Homo sapiens), Q16512 [V901I]. The experiment is described as follows: Inhibition of recombinant human PRK1 V901I mutant (498 to end residues) assessed as residual activity at 10 uM using KKLNRTLSFAEPG as substrate incubated for 40 mins in presence of [gamma33P]ATP by scintillation counting based radiometry assay relative to control.
Experiment [18] concerns Epidermal growth factor receptor (Homo sapiens), P00533 [L858R]. In words: Inhibition of recombinant human EGFR L858R mutant (696 to end residues) assessed as residual activity at 10 uM using poly(Glu, Tyr) 4:1 as substrate at 40 mins in presence of [gamma-33ATP] by scintillation counting based radiometry assay relative to control.
The target of experiment [19] is Calcium/calmodulin-dependent protein kinase type II subunit delta (Homo sapiens) (UniProt Q13557). The experiment is described as follows: Inhibition of recombinant full length human CaMK2delta assessed as residual activity at 10 uM using […] incubated for 40 mins in presence of [gamma-33ATP] by scintillation counting based radiometry assay relative to control.

Sequence of Tyrosine-protein kinase receptor UFO (Homo sapiens), P30530 [Q764R] (P30530 whole entry Q764R): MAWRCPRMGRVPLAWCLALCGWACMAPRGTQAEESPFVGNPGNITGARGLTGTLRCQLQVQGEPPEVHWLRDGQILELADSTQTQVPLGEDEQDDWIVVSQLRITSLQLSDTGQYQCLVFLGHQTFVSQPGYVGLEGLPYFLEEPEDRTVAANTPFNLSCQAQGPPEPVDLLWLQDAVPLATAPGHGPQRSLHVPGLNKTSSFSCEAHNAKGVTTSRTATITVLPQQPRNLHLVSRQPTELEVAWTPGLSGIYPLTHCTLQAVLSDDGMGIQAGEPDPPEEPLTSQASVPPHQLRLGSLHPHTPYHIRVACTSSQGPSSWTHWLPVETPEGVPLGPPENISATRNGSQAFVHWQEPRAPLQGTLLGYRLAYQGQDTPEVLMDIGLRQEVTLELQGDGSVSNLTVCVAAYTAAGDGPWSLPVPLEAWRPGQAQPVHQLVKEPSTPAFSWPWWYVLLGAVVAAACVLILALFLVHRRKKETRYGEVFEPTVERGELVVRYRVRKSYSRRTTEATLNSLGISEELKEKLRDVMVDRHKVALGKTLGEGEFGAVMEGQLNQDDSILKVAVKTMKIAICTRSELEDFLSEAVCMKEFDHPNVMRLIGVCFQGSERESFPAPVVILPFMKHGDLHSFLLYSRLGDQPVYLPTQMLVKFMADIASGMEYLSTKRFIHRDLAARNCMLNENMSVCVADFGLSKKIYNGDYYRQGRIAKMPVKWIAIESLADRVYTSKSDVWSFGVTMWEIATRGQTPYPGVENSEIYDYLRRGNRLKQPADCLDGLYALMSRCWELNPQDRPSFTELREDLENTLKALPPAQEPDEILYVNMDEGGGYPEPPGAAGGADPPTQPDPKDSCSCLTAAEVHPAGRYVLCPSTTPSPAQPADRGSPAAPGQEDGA
Sequence of SNF-related serine/threonine-protein kinase (Homo sapiens), Q9NRH2 [UNDEFINED MUTATION] (Q9NRH2 whole entry, looked up, stated change not applied, the tested form may be a part): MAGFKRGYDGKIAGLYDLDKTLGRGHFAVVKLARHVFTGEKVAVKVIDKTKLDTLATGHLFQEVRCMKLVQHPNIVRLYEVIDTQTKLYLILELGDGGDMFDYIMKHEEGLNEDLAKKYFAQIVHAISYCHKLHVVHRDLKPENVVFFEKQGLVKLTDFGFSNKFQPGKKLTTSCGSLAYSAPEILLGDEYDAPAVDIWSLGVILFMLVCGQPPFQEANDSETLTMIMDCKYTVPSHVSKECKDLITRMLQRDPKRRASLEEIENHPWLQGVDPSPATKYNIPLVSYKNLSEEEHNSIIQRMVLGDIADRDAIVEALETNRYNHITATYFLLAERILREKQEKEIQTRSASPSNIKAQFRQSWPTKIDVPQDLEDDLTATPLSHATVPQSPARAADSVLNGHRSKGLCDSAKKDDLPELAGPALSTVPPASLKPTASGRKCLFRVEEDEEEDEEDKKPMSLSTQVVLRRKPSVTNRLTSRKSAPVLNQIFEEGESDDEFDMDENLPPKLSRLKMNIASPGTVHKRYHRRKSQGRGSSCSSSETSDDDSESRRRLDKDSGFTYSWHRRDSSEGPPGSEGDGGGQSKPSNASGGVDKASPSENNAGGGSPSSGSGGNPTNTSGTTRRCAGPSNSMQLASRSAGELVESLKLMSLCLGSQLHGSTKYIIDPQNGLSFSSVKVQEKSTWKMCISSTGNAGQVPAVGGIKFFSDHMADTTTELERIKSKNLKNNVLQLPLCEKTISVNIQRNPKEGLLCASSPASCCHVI
Sequence of NUAK family SNF1-like kinase 2 (Homo sapiens) (Q9H093 whole entry): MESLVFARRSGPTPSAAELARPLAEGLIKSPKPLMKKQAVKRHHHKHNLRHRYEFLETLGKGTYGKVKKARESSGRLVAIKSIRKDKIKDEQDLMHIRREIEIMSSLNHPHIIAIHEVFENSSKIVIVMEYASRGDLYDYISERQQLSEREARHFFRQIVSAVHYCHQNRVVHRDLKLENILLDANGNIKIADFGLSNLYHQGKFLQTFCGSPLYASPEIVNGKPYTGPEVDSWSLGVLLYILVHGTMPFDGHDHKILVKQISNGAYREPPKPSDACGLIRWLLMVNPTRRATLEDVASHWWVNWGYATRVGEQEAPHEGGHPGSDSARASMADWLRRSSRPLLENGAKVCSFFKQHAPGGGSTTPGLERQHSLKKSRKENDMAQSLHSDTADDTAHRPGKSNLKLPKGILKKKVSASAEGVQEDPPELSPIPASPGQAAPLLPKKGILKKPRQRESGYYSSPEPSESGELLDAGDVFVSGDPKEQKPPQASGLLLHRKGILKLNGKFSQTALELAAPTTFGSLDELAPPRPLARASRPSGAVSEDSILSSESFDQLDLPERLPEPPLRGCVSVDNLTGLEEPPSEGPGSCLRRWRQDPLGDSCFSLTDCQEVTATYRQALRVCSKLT
Sequence of Serine/threonine-protein kinase 32A (Homo sapiens) (Q8WU08 whole entry, the tested form may be a part): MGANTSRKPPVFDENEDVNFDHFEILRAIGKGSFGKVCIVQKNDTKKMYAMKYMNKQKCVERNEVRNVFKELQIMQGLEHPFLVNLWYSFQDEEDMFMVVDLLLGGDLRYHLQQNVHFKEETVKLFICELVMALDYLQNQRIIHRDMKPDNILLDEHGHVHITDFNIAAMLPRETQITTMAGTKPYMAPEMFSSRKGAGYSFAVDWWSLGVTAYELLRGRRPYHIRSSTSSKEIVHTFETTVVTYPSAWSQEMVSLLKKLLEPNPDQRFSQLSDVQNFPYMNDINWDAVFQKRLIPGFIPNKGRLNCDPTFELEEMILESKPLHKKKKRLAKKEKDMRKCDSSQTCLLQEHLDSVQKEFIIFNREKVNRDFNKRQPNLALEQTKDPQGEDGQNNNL
Sequence of PAS domain-containing serine/threonine-protein kinase (Homo sapiens) (Q96RG2 whole entry, the tested form may be a part): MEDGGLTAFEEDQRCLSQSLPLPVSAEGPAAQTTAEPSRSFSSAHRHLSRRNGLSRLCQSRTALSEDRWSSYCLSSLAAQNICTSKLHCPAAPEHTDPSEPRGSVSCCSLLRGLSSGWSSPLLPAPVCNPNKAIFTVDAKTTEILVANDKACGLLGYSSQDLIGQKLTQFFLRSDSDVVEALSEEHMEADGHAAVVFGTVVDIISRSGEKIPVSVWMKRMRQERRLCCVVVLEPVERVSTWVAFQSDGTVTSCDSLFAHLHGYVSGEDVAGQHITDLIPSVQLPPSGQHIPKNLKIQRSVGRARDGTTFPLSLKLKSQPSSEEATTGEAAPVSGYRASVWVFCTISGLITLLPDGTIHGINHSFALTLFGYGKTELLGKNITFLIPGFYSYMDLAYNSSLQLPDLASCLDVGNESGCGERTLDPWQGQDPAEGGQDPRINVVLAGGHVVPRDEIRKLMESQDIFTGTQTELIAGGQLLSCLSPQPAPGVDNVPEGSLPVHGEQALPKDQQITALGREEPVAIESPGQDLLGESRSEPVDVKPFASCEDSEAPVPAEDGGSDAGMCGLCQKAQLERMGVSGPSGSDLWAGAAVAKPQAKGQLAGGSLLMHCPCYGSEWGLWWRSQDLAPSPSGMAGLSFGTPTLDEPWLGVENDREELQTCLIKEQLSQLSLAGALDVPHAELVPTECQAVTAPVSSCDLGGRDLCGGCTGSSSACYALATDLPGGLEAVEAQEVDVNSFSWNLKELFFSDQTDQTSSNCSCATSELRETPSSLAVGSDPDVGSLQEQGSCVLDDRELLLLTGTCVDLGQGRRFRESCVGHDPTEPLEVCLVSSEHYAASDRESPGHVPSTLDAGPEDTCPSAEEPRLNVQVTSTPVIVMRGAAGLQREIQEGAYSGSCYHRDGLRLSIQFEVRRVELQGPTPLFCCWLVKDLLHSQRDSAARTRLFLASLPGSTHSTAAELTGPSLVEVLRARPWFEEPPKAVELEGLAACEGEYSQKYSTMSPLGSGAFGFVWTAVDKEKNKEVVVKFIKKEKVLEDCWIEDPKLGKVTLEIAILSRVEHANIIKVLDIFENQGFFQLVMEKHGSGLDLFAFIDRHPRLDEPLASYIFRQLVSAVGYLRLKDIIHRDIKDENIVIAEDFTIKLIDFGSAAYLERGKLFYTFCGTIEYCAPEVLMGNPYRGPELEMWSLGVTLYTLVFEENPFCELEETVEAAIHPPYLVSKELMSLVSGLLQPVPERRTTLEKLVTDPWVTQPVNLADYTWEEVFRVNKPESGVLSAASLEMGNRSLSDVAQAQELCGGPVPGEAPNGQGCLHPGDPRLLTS
Sequence of Serine/threonine-protein kinase Sgk3 (Homo sapiens) (Q96BR1 whole entry): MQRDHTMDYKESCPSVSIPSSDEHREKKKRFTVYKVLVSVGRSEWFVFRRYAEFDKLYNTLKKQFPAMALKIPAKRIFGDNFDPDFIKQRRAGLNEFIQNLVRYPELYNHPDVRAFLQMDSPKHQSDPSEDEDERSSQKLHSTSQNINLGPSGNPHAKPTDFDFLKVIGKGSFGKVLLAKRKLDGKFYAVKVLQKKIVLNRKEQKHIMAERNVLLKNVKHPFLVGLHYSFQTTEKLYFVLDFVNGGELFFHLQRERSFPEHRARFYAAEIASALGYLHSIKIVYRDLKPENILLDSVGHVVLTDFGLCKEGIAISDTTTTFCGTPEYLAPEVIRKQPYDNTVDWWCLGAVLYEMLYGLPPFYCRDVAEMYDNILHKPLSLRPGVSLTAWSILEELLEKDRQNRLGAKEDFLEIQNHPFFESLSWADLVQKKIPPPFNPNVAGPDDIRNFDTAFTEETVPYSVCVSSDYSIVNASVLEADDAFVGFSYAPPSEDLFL
Sequence of Tyrosine-protein kinase Fgr (Homo sapiens) (P09769 2-529 limits assumed): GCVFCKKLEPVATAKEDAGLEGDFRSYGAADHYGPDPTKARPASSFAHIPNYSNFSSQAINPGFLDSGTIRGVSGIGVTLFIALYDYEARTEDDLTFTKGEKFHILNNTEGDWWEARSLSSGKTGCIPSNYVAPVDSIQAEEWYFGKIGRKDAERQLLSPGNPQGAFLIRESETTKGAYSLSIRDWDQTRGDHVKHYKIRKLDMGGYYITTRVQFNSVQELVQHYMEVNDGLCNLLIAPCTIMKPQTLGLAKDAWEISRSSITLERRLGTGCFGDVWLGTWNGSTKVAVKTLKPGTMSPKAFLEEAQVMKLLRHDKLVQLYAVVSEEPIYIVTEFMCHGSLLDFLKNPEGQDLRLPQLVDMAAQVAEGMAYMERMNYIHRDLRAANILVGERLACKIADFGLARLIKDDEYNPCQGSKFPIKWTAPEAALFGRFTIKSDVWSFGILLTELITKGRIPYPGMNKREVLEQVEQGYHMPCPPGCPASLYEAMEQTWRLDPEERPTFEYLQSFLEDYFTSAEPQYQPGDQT

In the case of `C[C@@H](c1ccccc1)n1nnc2cnc3ccc(-c4cnc5[nH]ccc5c4)cc3c21`, the Activity in the experiment filed under Homo sapiens stood at 40%; in experiment [1] it was 62%; in experiment [2], 99%; in [3], 105%; in [4], 83%; in [5], 64%. Besides, the Activity was 59% in [6]; 5% in [7]; 69% in experiment [8]; 80% in experiment [9]; 76% in [10]; 95% in experiment [11]. Also, the Activity in experiment [12] stood at 92%; in experiment [13] it was 45%; in experiment [14], 95%; in [15] it was 30%; in experiment [16] it was 94%; in experiment [17] it was 60%. Also, the Activity in experiment [18] is 40%; in experiment [19] it was 68%.

Values taken from ChEMBL document CHEMBL4334471, “Discovery of 1,8-disubstituted-[1,2,3]triazolo[4,5-c]quinoline derivatives as a new class of Hippo signaling pathway inhibitors” (Bioorg Med Chem Lett, 2019).
